Reference: patent publication US5241047A, “Synthetic peptides and mixtures thereof for detecting HIV antibodies” (BioChem Pharma Inc., priority 1990, dated 1993)
Positions of bridges follow the written chain, without caps; N, C: chain ends. Residues, ends and D or L forms follow the SMILES beside them.

How the values were obtained:
Type in all cases: binding, human
HIV-1 antibodies = assay: ELISA with peptide-coated wells, HIV-1 antibody positive samples (diluted plasma pool, seroconversion samples)
Experimental: (§1) A preferred convenient and classical technique for the determination of antibodies against HIV-1 or HIV-2 using a peptide or a peptide mixture of the present invention is an enzyme-linked immunosorbent assay (ELISA). In this assay, for example, a peptide, peptide mixture or combination of the present invention is adsorbed onto, or covalently coupled to, the wells of a microtiter plate. The wells are then treated with the sera or analyte to be tested. After washing, antihuman IgG or antihuman IgM labeled with peroxidase is added to the wells. The determination of the peroxidase is performed with a corresponding substrate, e.g., with o-phenylene diamine. Without departing from the usefulness of the illustrative assay, the peroxidase can be exchanged by another label, e.g., by a radioactive, fluorescence chemiluminescence or infrared emitting label.
(§2) O.D. Values were obtained at 450 nm and the blank values measured with the sample dilution buffer were not subtracted.
(§3) Samples NEIA-2*2, BBI-1-162 to 168, 87B140, 87L139, 87V103 are all negative for HIV antibodies. Sample LSPQ-S9-1 is an early seroconverter (HIV-1). The series labeled CAP-113 to CAP-120 corresponds to a pool of seven HIV-1 positive plasma samples serially diluted with an HIV-negative plasma. CAP-113 is the pool diluted 50-fold with the HIV-negative plasma; CAP-114 is diluted 100-fold; CAP-115 is diluted 200-fold; etc. Similarly, the series labeled CAP-222 to CAP-230 corresponds to a pool of seven HIV-2 confirmed seropositive plasma samples. CAP-222 is diluted by 50 with an HIV-negative plasma; CAP-223 by 100; etc. Before the assay is done, each sample, including the CAP-series, is further diluted by 50 with the sample dilution buffer. In these tests, the cut-off for seropositivity is defined as the sum of the O.D. value for sample NEIA-2*2 plus 0.100.
Each well of the microtiter plate is saturated with 100 μl of a solution containing a peptide or mixture of peptides (5 μg/ml) and left overnight. The wells are emptied and washed twice with a washing buffer (Tris, 0.043M; NaCl, 0.5M; thimerosal, 0.01% w/v; Tween 20, 0.05% v/v; pH 7.4). The wells are then saturated with 0.35 ml of washing buffer for 1 hr. at 37° C. and washed once with the same buffer. Serum samples to be analyzed are diluted with specimen buffer (washing buffer plus casein, 0.05% w/v). The wells are rinsed with washing buffer prior to the addition of the diluted serum sample (0.1 ml). These are left to incubate for 1 hr. at room temperature. The wells are then emptied, washed twice rapidly and then once for two minutes with washing buffer. […] The wells are then emptied and washed twice rapidly with washing buffer and then five times in which the buffer was in contact with the well 2 minutes per washing. The substrate solution (3,3',5,5'-tetramethylbenzidine, 8 mg per ml of DMSO) is diluted with 100 volumes 0.1M citrate-acetate buffer, pH 5.6 containing 0.1% v/v of 30% H2 O2 and added to each well (0.1 ml per well). After 10 minutes the contents of each well is treated with 0.1 ml 2N H2 SO4 and the optical density read at 450 nm. All determinations are done in duplicate. […]

HIV antibodies = assay: ELISA with peptide-coated wells, samples negative for HIV antibodies or not described
Experimental: as §1, §2, §3
(§4) Each well of the microtiter plate is saturated with 100 μl of a solution containing a peptide or mixture of peptides (5 μg/ml) and left overnight. The wells are emptied and washed twice with a washing buffer (Tris, 0.043M; NaCl, 0.5M; thimerosal, 0.01% w/v; Tween 20, 0.05% v/v; pH 7.4). The wells are then saturated with 0.35 ml of washing buffer for 1 hr. at 37° C. and washed once with the same buffer. Serum samples to be analyzed are diluted with specimen buffer (washing buffer plus casein, 0.05% w/v). The wells are rinsed with washing buffer prior to the addition of the diluted serum sample (0.1 ml). These are left to incubate for 1 hr. at room temperature. The wells are then emptied, washed twice rapidly and then once for two minutes with washing buffer. […] The wells are then emptied and washed twice rapidly with washing buffer and then five times in which the buffer was in contact with the well 2 minutes per washing. The substrate solution (3,3',5,5'-tetramethylbenzidine, 8 mg per ml of DMSO) is diluted with 100 volumes 0.1M citrate-acetate buffer, pH 5.6 containing 0.1% v/v of 30% H2 O2 and added to each well (0.1 ml per well). After 10 minutes the contents of each well is treated with 0.1 ml 2N H2 SO4 and the optical density read at 450 nm. All determinations are done in duplicate.
(§5) Peptide cocktails were prepared by mixing together equal volumes of two peptide solutions each at 10 ug/ml. One cocktail used peptides BCH-87c and BCH-202c and the other cocktail was a mixture of BCH-87ck and BCH-202ck. Each cocktail was used to coat two series of plates as described earlier.

HIV-2 antibodies = assay: ELISA with peptide-coated wells, HIV-2 seropositive plasma pool serially diluted; conditions: Test 314
Experimental: as §1, §2, §3, §4, §5

[1] = Test 350, sample CAP-10 (progressively higher dilutions)
[2] = Test 350, sample CAP-11 (progressively higher dilutions)
[3] = Test 350, sample CAP-12 (progressively higher dilutions)
[4] = Test 350, sample CAP-13 (progressively higher dilutions)
[5] = Test 350, sample CAP-14 (progressively higher dilutions)
[6] = Test 350, sample CAP-15 (progressively higher dilutions)
[7] = Test 350, sample CAP-16 (progressively higher dilutions)
[8] = Test 350, sample CAP-17 (progressively higher dilutions)
[9] = Test 350, sample CAP-18 (progressively higher dilutions)
[10] = Test 350, sample CAP-19 (progressively higher dilutions)
[11] = Test 350, sample 2-87-L-139 (negative for HIV antibodies)
[12] = Test 350, sample 2-87-V-103 (negative for HIV antibodies)
[13] = Test 350, sample 89-D-307 (not described)
[14] = Test 350, sample NEIA-2*2 (negative for HIV antibodies)

Compound	O.D. 450 nm (HIV-1 antibodies; [1])	O.D. 450 nm (HIV-1 antibodies; [2])	O.D. 450 nm (HIV-1 antibodies; [3])	O.D. 450 nm (HIV-1 antibodies; [4])	O.D. 450 nm (HIV-1 antibodies; [5])	O.D. 450 nm (HIV-1 antibodies; [6])	O.D. 450 nm (HIV-1 antibodies; [7])	O.D. 450 nm (HIV-1 antibodies; [8])	O.D. 450 nm (HIV-1 antibodies; [9])	O.D. 450 nm (HIV-1 antibodies; [10])	O.D. 450 nm (HIV antibodies; [11])	O.D. 450 nm (HIV antibodies; [12])	O.D. 450 nm (HIV antibodies; [13])	O.D. 450 nm (HIV antibodies; [14])	further results
CC[C@H](C)[C@H](NC(=O)CNC(=O)[C@H](CC(C)C)NC(=O)[C@H](CC(C)C)NC(=O)[C@H](CCC(N)=O)NC(=O)[C@H](CCC(N)=O)NC(=O)[C@H](CC(=O)O)NC(=O)[C@H](CCCCN)NC(=O)[C@H](CC(C)C)NC(=O)[C@H](Cc1ccc(O)cc1)NC(=O)[C@H](CCCNC(=N)N)NC(=O)[C@H](CCC(=O)O)NC(=O)[C@@H](NC(=O)[C@H](C)NC(=O)[C@H](CC(C)C)NC(=O)[C@@H](NC(=O)[C@@H](N)CCCCN)[C@@H](C)CC)C(C)C)C(=O)N[C@@H](Cc1c[nH]c2ccccc12)C(=O)NCC(=O)N[C@H]1CSSC[C@@H](C(=O)N[C@H](C(=O)N[C@H](C(=O)N[C@@H](C)C(=O)N[C@H](C(=O)N2CCC[C@H]2C(=O)N[C@@H](Cc2c[nH]c3ccccc23)C(=O)N[C@@H](CC(N)=O)C(=O)N[C@@H](C)C(=O)N[C@@H](CO)C(=O)O)C(C)C)[C@@H](C)O)[C@@H](C)O)NC(=O)[C@H]([C@@H](C)CC)NC(=O)[C@H](CC(C)C)NC(=O)[C@H](CCCCN)NC(=O)CNC(=O)[C@H](CO)NC1=O [BCH-87ck] (H-KILAVERYLKDQQLLGIWGCSGKLICTTAVPWNAS-OH; disulfide 20-26)	> 2.8	> 2.8	2.735	1.676	1.089	0.643	0.274	0.191	0.114	0.053	0.409	0.015	0.022	0.034	O.D. 450 nm (HIV-1 antibodies; Test 314, sample CAP-113 (HIV-1 positive plasma pool diluted 50-fold)): > 2.8; O.D. 450 nm (HIV-1 antibodies; Test 314, sample CAP-114 (HIV-1 positive pool diluted 100-fold)): > 2.8; O.D. 450 nm (HIV-1 antibodies; Test 314, sample CAP-115 (HIV-1 positive pool diluted 200-fold)): 2.593; O.D. 450 nm (HIV-1 antibodies; Test 314, sample CAP-116 (HIV-1 positive pool, serial dilution)): 1.871; O.D. 450 nm (HIV-1 antibodies; Test 314, sample CAP-117 (HIV-1 positive pool, serial dilution)): 1.158; O.D. 450 nm (HIV-1 antibodies; Test 314, sample CAP-118 (HIV-1 positive pool, serial dilution)): 0.679; O.D. 450 nm (HIV-1 antibodies; Test 314, sample CAP-119 (HIV-1 positive pool, serial dilution)): 0.392; O.D. 450 nm (HIV-1 antibodies; Test 314, sample CAP-120 (HIV-1 positive pool, serial dilution)): 0.229; O.D. 450 nm (HIV antibodies; Test 314, sample BBI-1-162 (negative for HIV antibodies)): 0.015; O.D. 450 nm (HIV antibodies; Test 314, sample BBI-1-169 (not described)): 0.090; O.D. 450 nm (HIV antibodies; Test 314, sample BBI-1-172 (not described)): 0.019; O.D. 450 nm (HIV antibodies; Test 314, sample NEIA-2*2 (negative for HIV antibodies)): 0.050; O.D. 450 nm (HIV-2 antibodies; sample CAP-222 (HIV-2 positive plasma pool diluted by 50)): 0.069; O.D. 450 nm (HIV-2 antibodies; sample CAP-223 (HIV-2 positive pool diluted by 100)): 0.060; O.D. 450 nm (HIV-2 antibodies; sample CAP-224 (HIV-2 positive pool, serial dilution)): 0.054; O.D. 450 nm (HIV-2 antibodies; sample CAP-225 (HIV-2 positive pool, serial dilution)): 0.050; O.D. 450 nm (HIV-2 antibodies; sample CAP-226 (HIV-2 positive pool, serial dilution)): 0.050; O.D. 450 nm (HIV-2 antibodies; sample CAP-227 (HIV-2 positive pool, serial dilution)): 0.043; O.D. 450 nm (HIV-2 antibodies; sample CAP-228 (HIV-2 positive pool, serial dilution)): 0.042; O.D. 450 nm (HIV-2 antibodies; sample CAP-230 (HIV-2 positive pool, serial dilution)): 0.049
CC[C@H](C)[C@H](NC(=O)[C@H](CC(C)C)NC(=O)[C@H](CCCCN)NC(=O)CNC(=O)[C@H](CO)NC(=O)[C@H](C)NC(=O)[C@H](CC(N)=O)NC(=O)[C@H](Cc1c[nH]c2ccccc12)NC(=O)[C@@H]1CCCN1C(=O)[C@@H](NC(=O)[C@H](C)NC(=O)[C@@H](NC(=O)[C@@H](NC(=O)[C@@H]1CSSC[C@H](NC(=O)CNC(=O)[C@H](Cc2c[nH]c3ccccc23)NC(=O)[C@@H](NC(=O)CNC(=O)[C@H](CC(C)C)NC(=O)[C@H](CC(C)C)NC(=O)[C@H](CCC(N)=O)NC(=O)[C@H](CCC(N)=O)NC(=O)[C@H](CC(=O)O)NC(=O)[C@H](CCCCN)NC(=O)[C@H](CC(C)C)NC(=O)[C@H](Cc2ccc(O)cc2)NC(=O)[C@H](CCCNC(=N)N)NC(=O)[C@H](CCC(=O)O)NC(=O)[C@@H](NC(=O)[C@H](C)NC(=O)[C@H](CC(C)C)NC(=O)[C@@H](NC(=O)[C@@H](N)CCCCN)[C@@H](C)CC)C(C)C)[C@@H](C)CC)C(=O)N[C@@H](CO)C(=O)NCC(=O)N[C@@H](CCCCN)C(=O)N[C@@H](CC(C)C)C(=O)N[C@@H]([C@@H](C)CC)C(=O)N1)[C@@H](C)O)[C@@H](C)O)C(C)C)C(=O)O [BCH-408] (H-KILAVERYLKDQQLLGIWGCSGKLICTTAVPWNASGKLI-OH; disulfide 20-26)	> 2.8	> 2.8	> 2.8	2.319	1.433	0.835	0.455	0.244	0.156	0.102	0.025	0.014	0.029	0.035	sensitivity compared to the other peptides (HIV-1 antibodies; Table 3, versus BCH-87c, BCH-87ck, BCH-266 at progressively higher dilutions): superior sensitivity
